From article PMC11589483, “Preparation and anti-colon cancer effect of a novel curcumin analogue (CA8): in vivo and in vitro evaluation” (Frontiers in Pharmacology, 2024)
Like-named read-outs stand apart in the source and are kept apart here. One block for each molecule: values may come before it.

Experiments:
[1] = design: method as in Al-Hujaily et al., 2011; conditions: ref Al-Hujaily et al., 2011; cited from earlier work
[2] = Solubility in water by HPLC; type: physicochemical; conditions: 25°C, mass of solute dissolved at saturation in 100 g of solvent
Procedure: The solubility of the synthesized compounds in water was determined using high performance liquid chromatography (HPLC). First, 1.000 g of each compound was accurately weighed, placed in 100 g of water, and stirred at 25°C for a period of time. Then, the reaction system was allowed to stand for 1 h. The supernatant was quantitatively taken, diluted with methanol to volume, and centrifuged, and the solubility was determined using HPLC.

lung cancer cells A549 = assay: MTT antiproliferative assay, A549; type: cell-based; conditions: Homo sapiens
Procedure: (§1) The human cancer cell lines A549, HepG2, MCF-7, Caco-2, and HeLa and the normal human liver cell line LO2 were all obtained from Shanghai Cell Bank of China. All cells were cultured in RPMI 1640 or DMEM supplemented with 10% fetal bovine serum, 100 U/mL penicillin, and 100 μg/mL streptomycin and incubated at 37°C under 5% CO2 (HEPA incubator class100 Thermo company). The medium was replaced three times a week. Cells used in all were in the exponential growth phase.
(§2) The cell inhibition rate was evaluated using the MTT assay. Briefly, cells were seeded in a 96-well plate at a density of 3–4 × 10^3 cells per well and incubated at 37°C for 24 h. The MCACs to be tested were dissolved in dimethyl sulfoxide (DMSO, Merck, Germany) and diluted to five concentrations (3.75, 7.5, 15, 30, 60 μM/L) with RPMI 1640 medium, with each dose analyzed in quadruplicate. The concentration of DMSO was always maintained below 1‰, a concentration that is nontoxic to cells. After incubation for 24 or 48 h, MTT reagent (5 mg/mL) was added to each well and the samples were incubated for 3 h at 37°C in the dark. The absorbance of formazan crystals dissolved in 150 µL of DMSO was measured at 570 nm using a microplate reader to identify the cytotoxic effect of the analogues.

liver cancer cells HepG2 = assay: MTT antiproliferative assay, HepG2; type: cell-based; conditions: Homo sapiens
Procedure: as §1, §2

[3] = system: breast cancer cells MCF-7; assay: MTT antiproliferative assay, MCF-7; type: cell-based; conditions: Homo sapiens
Procedure: as §1, §2

[4] = system: cervical cancer cells HeLa; assay: MTT antiproliferative assay, HeLa; type: cell-based; conditions: Homo sapiens
Procedure: as §1, §2

[5] = system: colon cancer cells Caco-2; assay: MTT antiproliferative assay, Caco-2; type: cell-based, human; conditions: for IC50: Homo sapiens, read-out: IC50 Caco2
Procedure: as §1, §2

[6] = system: normal human liver cell line LO2; assay: MTT assay, normal liver cells LO2; type: cell-based
Procedure: as §1, §2

Caco-2 cells [7] = assay: Clonogenic assay; type: cell-based, human; conditions: 4, 8, or 16 μM/L, 6 h exposure
Procedure: Caco-2 cells were seeded into a 6-well plate at a density of 1 × 10^3 cells per well and incubated overnight. Then, the medium was replaced, and CA8 was added at the prescribed concentrations (4, 8, or 16 μM/L). After 6 h, the drug-containing medium was replaced with RPMI 1640 medium.
Caco-2 cells in 6-well plates were incubated for 1–2 weeks until the appearance of the colonies, followed by staining with crystal violet and incubation for 1 h at room temperature. After staining, images were captured accordingly.

Caco-2 cells [8] = assay: Apoptosis assay (Annexin V-FITC/propidium iodide flow cytometry); type: cell-based, human; conditions: 4, 8, 16 μM, 24 h
Procedure: The apoptotic effect of CA8 was assessed in Caco-2 cells according to the kit instructions. First, Caco-2 cells were treated with CA8 at dose of 4, 8, or 16 μM/L for 24 h. The cells were harvested and suspended in 500 μL annexin-binding buffer. Subsequently, the cells were stained with Annexin V-FITC for 15 min and then incubated with propidium iodide for 5 min at room temperature in the dark. Finally, all samples were evaluated via flow cytometry (FACS Calibur, BD, San Jose, CA, United States). The results obtained were analyzed using the FlowJo software, and the apoptotic rate was calculated.

Caco-2 cells [9] = assay: Cell cycle analysis (flow cytometry); type: cell-based, human; conditions: 4, 8, 16 μM, 24 h
Procedure: Caco-2 cells treated with CA8 at dose of 4, 8, or 16 μM/L for 24 h, they were collected, washed with PBS, and fixed in 70% ethanol overnight. The fixed cells were washed twice with PBS, treated with RNase A (10 mg/mL) and resuspended in 50 μg/mL propidium iodide for staining. Finally, the cell cycle distribution was assessed via flow cytometry (BD Biosciences, CA).

[10] = system: AKT, JNK, and NF-κB signaling pathways and apoptosis-related proteins; assay: Western blot of signaling and apoptosis proteins in Caco-2 cells; type: cell-based, human; conditions: Caco-2, 4, 8, 16 μM, 24 h, vs control
Procedure: The expression of apoptotic proteins and pathways was detected using western blot. Caco-2 cells treated with CA8 at a dose of 4, 8, or 16 μM/L for 24 h were collected and lysed with RIPA lysis buffer for 10 min. The concentration of total proteins was determined using a BCA protein quantitative kit. Total proteins were separated on an SDS-PAGE gel, transferred to PVDF membranes and incubated with 5% skim milk for 2 h. Subsequently, the PVDF membranes were incubated with primary antibodies (AKT 1:2000; Bcl-2 1:2000; Bax 1:5000; caspase-3 1:2,000; caspase-9 1:1000; P-AKT 1:1000; JNK 1:1000; P-JNK 1:1000; IKBα 1:2000; and β-actin 1:100000) at 4°C overnight. The membranes were rinsed three times with TBST and incubated with secondary antibodies (1:5000 dilution) for 2–3 h at room temperature. Finally, proteins were visualized using an ECL chemiluminescent kit (KF001, affinity). In the final step, the ImageJ software was used to analyze the results.

[11] = Pharmacokinetics evaluation after gavage; type: in vivo, Sprague Dawley (SD) rats; conditions: SD rats
Procedure: After the evaluation of the safety of CA8, 10 male Sprague Dawley (SD) rats were randomly divided into the CA8 and CU groups for the pharmacokinetic test ([Ye et al., 2020]). The rats were subjected to 1 week of adaptation and were fasted for 6 h before the experiment. CA8 (50 mg kg^−1) and CU (50 mg kg^−1) were administered via gavage. Blood samples were collected at 0.03, 0.08, 0.16, 0.25, 0.5, 1, 2, 4, 8 and 12 h and centrifuged at 5,000 rpm for 3 min to obtain the plasma. A mixture of ethyl acetate and methanol was then added to precipitate the proteins and separate the CA8 and CU from the plasma. The samples were then analyzed using HPLC.

Caco-2 xenograft tumors = assay: In vivo anticancer activity, Caco-2 xenograft; conditions: Caco-2 xenograft; CA8 100 mg/kg, CU 100 mg/kg, tegafur 50 mg/kg, gavage every other day
Procedure: Twenty 5-week-old male BALB nude mice purchased from SPF (Beijing) Biotechnology Co., Ltd. were used for the in vivo pharmacodynamic experiment of CA8. Caco-2 cells (6 × 10^6 cells in 100 μL PBS) were harvested and subcutaneously injected into the right hip of the mice. Then, they were divided into four groups when the tumor volume reached 100 mm^3 and treated with saline, CU (100 mg/kg), tegafur (50 mg/kg), or CA8 (100 mg/kg) via gavage every other day. Tumor size and body weight were measured and recorded every other day. At the end of the experiment, the mice were sacrificed and tumors were harvested and weighed. Tumor volumes were calculated by measuring length (L) and width (W) according to the following formula: V = 0.5 × L × W^2. The tumor tissue was embedded in paraffin, cut into slices, stained with HE, and observed under a light microscope.

SMILES: COc1cc(C=C2CN(C)CC(=Cc3ccc(O)c(OC)c3)C2=O)ccc1O [PAC]
solubility in water, times that of CU [1]: 27 times

Solubility [2]: 0.00017 mg/100g | IC50 (lung cancer cells A549; A549, 24 h): 37.2 ± 2.9 µM | IC50 (lung cancer cells A549; A549, 48 h): 34.4 ± 1.5 µM | IC50 (liver cancer cells HepG2; HepG2, 24 h): 43.4 ± 2.9 µM | IC50 (liver cancer cells HepG2; HepG2, 48 h): 27.4 ± 0.3 µM | IC50 ([3]; MCF7, 24 h): 40 ± 2.7 µM | IC50 ([3]; MCF7, 48 h): 22.3 ± 1.6 µM | IC50 ([4]; 24 h): 58.3 ± 2.2 µM | IC50 ([4]; 48 h): 17.3 ± 0.8 µM | IC50 ([5]; Caco-2, 24 h): > 60 µM | IC50 ([5]; Caco-2, 48 h): 33 ± 2.1 µM | time after dosing until cleared from / still detected in plasma ([11]; oral 50 mg kg^−1): 2 h | AUC(0-t) ([11]; oral (gavage) 50 mg kg^−1): 35,697.63 μg/L*min | CLz ([11]; oral (gavage) 50 mg kg^−1): 900 mL/min/kg | Tmax ([11]; oral (gavage) 50 mg kg^−1): 30.00 min | Vz ([11]; oral (gavage) 50 mg kg^−1): 97.58 L/kg | Cmax ([11]; male, Sprague Dawley, rat, plasma, oral (gavage) 50 mg kg^−1): 380 ng/mL | MRT last ([11]; male, Sprague Dawley, rat, plasma, oral (gavage) 50 mg kg^−1, read-out: MRT(0-t) (converted)): 54 min | half-life ([11]; male, Sprague Dawley, rat, plasma, oral (gavage) 50 mg kg^−1, read-out: t1/2z): 74.8 min
SMILES: COc1cc(/C=C/C(=O)CC(=O)/C=C/c2ccc(O)c(OC)c2)ccc1O [CU, Curcumin]
SI Caco2 ([5]; 48 h, logarithm of ratio IC50 LO2 / IC50 cancer cells): −0.08 | IC50 ([6]; 24 h): > 60 µM | IC50 ([6]; 48 h): 27.6 ± 1.36 µM | Caco-2 colony formation (Caco-2 cells [7]): did not have a significant inhibitory effect | induction of apoptosis (Caco-2 cells [8]): induced early and late apoptosis in a concentration-dependent manner | cell cycle arrest (Caco-2 cells [9]): induced S-phase arrest only to a lesser extent | expression of P-AKT [10]: inhibited the expression of P-AKT | expression of P-JNK and IκBα [10]: induced the expression of P-JNK and IκBα in a concentration-dependent manner | inhibitory effect on tumor growth (Caco-2 xenograft tumors): CA8 > tegafur > CU
